Data reported in patent US8247211B2, “Glycopeptide antibiotics” (American Cyanamid Company, priority 2001, dated 2012).
In brackets after ≈: the same amount, converted by molar mass.

Tests used:
Staphylococcus sp. = test: In vitro antibacterial evaluation: minimum inhibitory concentration (MIC), broth dilution method; type: cell-based; conditions: broth dilution, 18 hours at 35° C.
How it was run: (§1)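 First, organisms are seeded at 5×10^5 CFU/mL into Muller-Hinton II […]. Next, antibiotic is applied across 64-0.06 μg/mL by broth dilution (NCCLS M7-A2). Finally, the lowest inhibitory concentration is recorded as MIC.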

Escherichia coli = test: as above; type: cell-based
How it was run: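 Broth dilution per NCCLS M7-A2 in Muller-Hinton II […], inoculum 5×10^5 CFU/mL, antibiotic tested over 64-0.06 μg/mL. MIC is taken as the lowest concentration that inhibits growth. Panel includes recent clinical isolates resistant to methicillin, penicillin and/or vancomycin.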

Streptococcus sp. = test: as above; type: cell-based
How it was run: as §1

Enterococcus sp. = test: as above; type: cell-based
How it was run: as §1

[1] = Anatomic pathology (heart and kidney histopathology) in mice; type: in vivo, CD-1 mice; conditions: 20 mg/kg intravenously daily for 9 days, microscopic histopathology on day 10
How it was run: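 Histopathology on H&E-stained, paraffin-embedded sections, subjectively scored (slight, mild, moderate, marked, severe) relative to untreated controls. Dosing: glycopeptide antibiotics 20 mg/kg intravenously once daily ×9 days in 20-day-old CD-1 mice, n=5 per group including vehicle.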

[2] = system: Staphylococcus aureus-SMITH (GC 4543); test: Acute lethal infection in mice (ED50); type: in vivo; conditions: female CD-1 mice, intraperitoneal challenge, intravenous dose 30 min. after infection, 7 day survival ratios
How it was run: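 Bacteria suspended in Trypticase Soy Broth or hog gastric mucin are injected intraperitoneally into female CD-1 mice at a dose killing untreated animals within 24-48 hr. Thirty minutes later, test agent is administered intravenously. Survival at day 7 is scored.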

## CC(c1ccccc1)C1NC(=O)CNC(=O)C(CO)NC(=O)C(C(O)C2CNC(=N)N2C2OC(CO)C(O)C(O)C2O)NC(=O)C(C(O)C2CNC(=N)N2)NC(=O)C(Cc2ccc(OC3OC(CO)C(OC4OC5COC(c6ccc(C(=O)O)cc6)OC5C(O)C4O)C(O)C3O)cc2)NC1=O (stereo not drawn) [Example 141, Cyclo[glycyl-β-methylphenylalanyl-O-[4-O-[4,6-O-(4-carboxybenzylidene)hexopyranosyl]-hexopyranosyl]tyrosyl-3-(2-iminoimidazolidin-4-yl)seryl-3-(3-hexopyranosyl-2-iminoimidazolidin-4-yl)serylseryl]]
Staphylococcus sp.; 5×10^5 CFU/mL
  MIC Coagulase Negative Staphylococcus (GC 4547): >64 µg/mL
  MIC Coagulase Negative Staphylococcus (GC 4548): >64 µg/mL
  MIC Coagulase Negative Staphylococcus (GC 4549): >64 µg/mL
  MIC Coagulase Negative Staphylococcus (GC 4551): >64 µg/mL
  MIC Coagulase Negative Staphylococcus (GC 6257): >64 µg/mL
  MIC Staphylococcus aureus (ATCC 29213): >64 µg/mL
  MIC Staphylococcus aureus (GC 1131): >64 µg/mL
  MIC Staphylococcus aureus (GC 3051): >64 µg/mL
  MIC Staphylococcus aureus (GC 3053): >64 µg/mL
  MIC Staphylococcus aureus (GC 4541): >64 µg/mL
  MIC Staphylococcus aureus (GC 4542): >64 µg/mL
  MIC Staphylococcus aureus (GC 4544): >64 µg/mL
  MIC Staphylococcus aureus (GC 4545): >64 µg/mL
  MIC Staphylococcus aureus-SMITH (GC 4543): >64 µg/mL
  MIC Staphylococcus haemolyticus (GC 4546): >64 µg/mL
Staphylococcus sp.; strain ATCC 29213
  MIC Staphylococcus aureus (ATCC 29213): >64 µg/mL
Staphylococcus sp.; strain GC 1131
  MIC Staphylococcus aureus (GC 1131): >64 µg/mL
Staphylococcus sp.; strain GC 3051
  MIC Staphylococcus aureus (GC 3051): >64 µg/mL
Staphylococcus sp.; strain GC 3053
  MIC Staphylococcus aureus (GC 3053): >64 µg/mL
Staphylococcus sp.; strain GC 4541
  MIC Staphylococcus aureus (GC 4541): >64 µg/mL
Staphylococcus sp.; strain GC 4542
  MIC Staphylococcus aureus (GC 4542): >64 µg/mL
Staphylococcus sp.; strain GC 4543
  MIC Staphylococcus aureus-SMITH (GC 4543): >64 µg/mL
Staphylococcus sp.; strain GC 4544
  MIC Staphylococcus aureus (GC 4544): >64 µg/mL
Staphylococcus sp.; strain GC 4545
  MIC Staphylococcus aureus (GC 4545): >64 µg/mL
Staphylococcus sp.; strain GC 4546
  MIC Staphylococcus haemolyticus (GC 4546): >64 µg/mL
Staphylococcus sp.; strain GC 4547
  MIC Coagulase Negative Staphylococcus (GC 4547): >64 µg/mL
Staphylococcus sp.; strain GC 4548
  MIC Coagulase Negative Staphylococcus (GC 4548): >64 µg/mL
Staphylococcus sp.; strain GC 4549
  MIC Coagulase Negative Staphylococcus (GC 4549): >64 µg/mL
Staphylococcus sp.; strain GC 4551
  MIC Coagulase Negative Staphylococcus (GC 4551): >64 µg/mL
Staphylococcus sp.; strain GC 6257
  MIC Coagulase Negative Staphylococcus (GC 6257): >64 µg/mL
Escherichia coli; strain ATCC 25922
  MIC Escherichia coli (ATCC 25922): >64 µg/mL
Escherichia coli; strain GC 4559
  MIC Escherichia coli (GC 4559): >64 µg/mL
Escherichia coli; strain GC 4560
  MIC Escherichi coli (GC 4560): >64 µg/mL
Streptococcus sp.; strain ATCC 6301
  MIC Streptococcus pneumoniae (ATCC 6301): >64 µg/mL
Streptococcus sp.; strain GC 1894
  MIC Streptococcus pneumoniae (GC 1894): >64 µg/mL
Streptococcus sp.; strain GC 4563
  MIC Streptococcus pyogenes (GC 4563): >64 µg/mL
Streptococcus sp.; strain GC 4564
  MIC Streptococcus agalactiae (GC 4564): >64 µg/mL
Streptococcus sp.; strain GC 4565
  MIC Streptococcus pneumoniae (GC 4565): >64 µg/mL
Enterococcus sp.; strain ATCC 29212
  MIC Enterococcus faecalis (ATCC 29212): >64 µg/mL
Enterococcus sp.; strain GC 2242
  MIC Enterococcus faecalis (GC 2242): >64 µg/mL
Enterococcus sp.; strain GC 2243
  MIC Enterococcus faecium (GC 2243): >64 µg/mL
Enterococcus sp.; strain GC 2691
  MIC Enterococcus faecalis (GC 2691): >64 µg/mL
Enterococcus sp.; strain GC 3059
  MIC Enterococcus faecalis (GC 3059): >64 µg/mL
Enterococcus sp.; strain GC 4552
  MIC Enterococcus faecalis (GC 4552): >64 µg/mL
Enterococcus sp.; strain GC 4553
  MIC Enterococcus faecalis (GC 4553): >64 µg/mL
Enterococcus sp.; strain GC 4554
  MIC Enterococcus faecalis (GC 4554): >64 µg/mL
Enterococcus sp.; strain GC 4556
  MIC Enterococcus faecium (GC 4556): >64 µg/mL
Enterococcus sp.; strain GC 4557
  MIC Enterococcus faecium (GC 4557): 64 µg/mL (≈ 44.8 µM)
Enterococcus sp.; strain GC 4558
  MIC Enterococcus avium (GC 4558): >64 µg/mL
Enterococcus sp.; strain GC 6189
  MIC Enterococcus faecalis (GC 6189): >64 µg/mL
[1]
  Anatomical Pathology (Day 10), Heart: 0
  Anatomical Pathology (Day 10), Kidney: +++
[2]
  median effective dose (ED50), Staphylococcus aureus-SMITH (GC 4543): >8
